From patent US9969771B2, “Tetrapeptide having effect of inhibiting VEGF-induced angiogenesis and use thereof” (AVIXGEN INC., priority 2015, dated 2018)
Where a SMILES comes first, the peptide text is derived from it.

What was measured:
zebrafish = experiment: Zebrafish angiogenesis assay; assay type: in vivo; settings: zebrafish embryo
Experimental: An adult zebrafish and an embryo were grown and maintained in a standard laboratory environment, and a zebrafish experiment was conducted according to the protocols approved by the animal ethics committee of Chungnam National University. To analyze angiogenesis, at 48 hours post fertilization (hpf), the embryo was anesthetized with tricaine (MS-222, 0.02%, embryo buffer), a peptide was administered, and FITC-dextran (2,000 kDa, Sigma) was further injected. A blood vessel image was obtained with a Leica DM5000B system at 72 hpf. As a probe for whole mount in situ hybridization, digoxigenin (DIG)-labeled RNA prepared by a cad5 (NM_001003983) gene was used. Meanwhile, a peptide was injected into the 18-hpf embryo collected at 25 hpf, fixed with 4% paraformaldehyde, washed with PBS (in 0.1% Tween20), and hybridized with DIG-labeled riboprobes (hybridization buffer). Subsequently, the resulting product was reacted with an alkaline phosphatase (AP)-conjugated anti-DIG antibody. Following reaction with an AP staining solution, a staining status was observed and visualized under a microscope (Leica, MZ-16).

[1] = tested on: B16F10 mouse melanoma cells; experiment: Tumor metastasis experiment model (B16F10); assay type: in vivo, C57BL/6J mouse; settings: B16F10, 1 mg/kg per day peritoneally, three weeks, versus untreated control mouse
Experimental: 1×10^5 B16F10 mouse melanoma cells were injected into the caudal vein in the C57BL/6J mouse, and 1 mg/kg (100 μl) of RLYE (SEQ ID NO: 2) was peritoneally injected daily for 3 weeks. The lung was extracted and washed with Dulbecco's PBS, fixed in a 4% paraformaldehyde solution overnight, and the number of tumor metastasis shown on the entire surface of the lung was counted under a stereoscopic microscope.

NO synthase (eNOS) = experiment: Western blot, eNOS phosphorylation in VEGF-A-stimulated HUVECs; assay type: cell-based, human
Experimental: Cells were lyzed in RIPA buffer, and 50 μg of proteins were isolated by SDS-PAGE and then transferred to a PVDF membrane. The membrane was reacted with an antibody with respect to a target protein for 2 hours. The membrane was washed twice and reacted with a horseradish peroxidase-conjugated antibody, and then an amount of the target proteins was assessed with an enhanced chemiluminescence system.

SMILES: CC(C)C[C@H](NC(=O)[C@@H](N)CCCNC(=N)N)C(=O)N[C@@H](Cc1ccc(O)cc1)C(=O)N[C@@H](CCC(=O)O)C(=O)O [RLYE] (H-RLYE-OH; N-terminus and C-terminus assumed)
- formation of intersegmental vessels (ISV) (zebrafish): obviously inhibited
- formation of subintestinal vessels (SIV) (zebrafish): considerably inhibited
- decrease in number of colonies of tumor cells spreading to the lung [1]: 62%
- VEGF-A-induced phosphorylation of eNOS (NO synthase (eNOS)): effectively blocked
